# Measured values from patent US20220402883A1, “COMPOUNDS AND METHODS FOR MODULATING RNA FUNCTION” (Arrakis Therapeutics, Inc., priority 2016, published 2022).
# Where a name gives a salt, the structure may show the parent alone.
# Tested on: RNA3WJ_0.0.0_5IB_3FAM (3WJ_0.0.0_5IB_3FAM RNA construct)
# Assay: Thermal shift binding assay
# Settings: for Melt. Temp. with cmpd / Shift melt. Temp.: RNA sequence 3WJ_0.0.0_5IB_FAM; for Melt. Temp. with cmpd: melting temperature in presence of compound; for Shift melt. Temp.: with cmpd minus without cmpd; for Temp. Shift: 1 μM RNA, 8 μM compound, 10 mM CacoK pH 7.2, 30 mM NaCl
# Excerpt: Purpose: Test binding of compounds for RNA three way junction (for example, a construct of 38 nt). Thermal shift assay based on established fluorescence quenching assay utilizing FAM as fluorescence tag and Iowa Black as quencher. Tags were attached at the 3′ and 5′ end, respectively. Stable formation of 3WJ upon compound binding would lead to quenching of the FAM fluorescence due to close proximity of the Iowa Black tag. Thermal unfolding leads to increase of fluorescence emission. Assay readout: FAM (465-510 nm) Thermal Shift.
# Assay sample buffer used: 10 mM CacoK pH 7.2, 30 mM NaCl. Buffer preparation in Dnase/Rnase Free distilled water (Gibco Life Technologies).
# Dilute the RNA 1:10 (final 10 μM) in Assay Buffer.
# Heat up the diluted RNA up to 90° C. for 5 min (sealed Eppendorf Tube).
# Cool down the RNA probe slowly to RT.
# Dilute the compounds to 800 μM in DMSO (Assay: 8 μM). […]
# Pipet 20 μL Sample Solution into Roche, Light Cycler480 Multiwell Plate96, white, REF 04729692001.
# Measure the 96 plate with the LightCycler480 (Channel: 480/510 nm; Temperature: 41-91° C.).
# Analyse measurement-data with the MeltingCurveGenotyping Mode.
# Settings: Acquisition mode: continuous; Ramp rate: 0.1° C./sec; Acquisition: 6° C.
# Curves are fitted with raw and normalized data.
# Melting curves analysis show melting temperature (Tm) of ˜51° C. Range of RNA concentrations was tested and assay window was determined (conc. range of 0.5-1 μM yields best results). The choice of buffer also affected the Tm. RNA constructs were tested under different buffer conditions (especially in presence of salt) in the thermal shift assay. […] CacoK with 30 mM salt at 1 μM RNA conc. was used to assess compound effects on 3WJ stability. […] These conditions were used for screening test compounds.
SMILES,Melt. Temp. with cmpd [°C],Shift melt. Temp.,Temp. Shift
"CN(CCOCCOCCOCCNC(=O)CCC12c3cc(NC(=O)CCCCCCCN)ccc3C(c3ccc(NC(=O)CCCCCCCN)cc31)c1ccc(NC(=O)CCCCCCCN)cc12)C(=O)[C@@H]1C[C@H](N=[N+]=[N-])CN1C(=O)c1ccc(S(=O)(=O)F)cc1 [ARK000032, 4-((2S,4S)-4-azido-2-(methyl(12-methyl-13-oxo-15-(2,7,15-tris(8-aminooctanamido)-9,10-[1,2]benzenoanthracen-9(10H)-yl)-3,6,9-trioxa-12-azapentadecyl)carbamoyl)pyrrolidine-1-carbonyl)benzenesulfonyl fluoride]",75.1,+15.0 °C,+15.0 °C
"CN(CCOCCN(C)C(=O)[C@@H]1C[C@H](N=[N+]=[N-])CN1C(=O)c1ccc2c(=O)oc(=O)n(C)c2c1)C(=O)CCC12c3cc(NC(=O)CCCCCCCN)ccc3C(c3ccc(NC(=O)CCCCCCCN)cc31)c1ccc(NC(=O)CCCCCCCN)cc12 [ARK000033, N,N′,N″-(9-(3-((2-(2-((2S,4S)-4-azido-N-methyl-1-(1-methyl-2,4-dioxo-1,4-dihydro-2H-benzo[d][1,3]oxazine-7-carbonyl)pyrrolidine-2-carboxamido)ethoxy)ethyl)(methyl)amino)-3-oxopropyl)-9,10-dihydro-9,10-[1,2]benzenoanthracene-2,7,15-triyl)tris(8-aminooctanamide)]",62.4,+0.9 °C,–
CN(CCOCCN(C)C(=O)[C@@H]1C[C@H](N=[N+]=[N-])CN1C(=O)CCc1ccc(S(=O)(=O)F)cc1)C(=O)CCC12c3cc(NC(=O)CCCCCCCN)ccc3C(c3ccc(NC(=O)CCCCCCCN)cc31)c1ccc(NC(=O)CCCCCCCN)cc12 [ARK000027],83.4,+23.7 °C,–
"CN(CCOCCOCCOCCNC(=O)CCC12c3cc(NC(=O)CCCCCCCN)ccc3C(c3ccc(NC(=O)CCCCCCCN)cc31)c1ccc(NC(=O)CCCCCCCN)cc12)C(=O)[C@@H]1C[C@H](N=[N+]=[N-])CN1C(=O)COc1ccc2c(=O)oc(=O)n(C)c2c1 [ARK000026, N,N′,N″-(9-(1-((2S,4S)-4-azido-1-(2-((1-methyl-2,4-dioxo-1,4-dihydro-2H-benzo[d][1,3]oxazin-7-yl)oxy)acetyl)pyrrolidin-2-yl)-2,14-dimethyl-1,15-dioxo-5,8,11-trioxa-2,14-diazaheptadecan-17-yl)-9,10-dihydro-9,10-[1,2]benzenoanthracene-2,7,15-triyl)tris(8-aminooctanamide)]",60.9,−1.2 °C,–
"CN(CCOCCN(C)C(=O)[C@@H]1C[C@H](N=[N+]=[N-])CN1C(=O)COc1ccc2c(=O)oc(=O)n(C)c2c1)C(=O)CCC12c3cc(NC(=O)CCCCCCCN)ccc3C(c3ccc(NC(=O)CCCCCCCN)cc31)c1ccc(NC(=O)CCCCCCCN)cc12 [ARK000024, N,N′,N″-(9-(3-((2-(2-((2S,4S)-4-azido-N-methyl-1-(2-((1-methyl-2,4-dioxo-1,4-dihydro-2H-benzo[d][1,3]oxazin-7-yl)oxy)acetyl)pyrrolidine-2-carboxamido)ethoxy)ethyl)(methyl)amino)-3-oxopropyl)-9,10-dihydro-9,10-[1,2]benzenoanthracene-2,7,15-triyl)tris(8-aminooctanamide)]",60.7,+0.3 °C,–
"N[C@@H](Cc1c[nH]cn1)C(=O)Nc1ccc2c(c1)C1c3cc(NC(=O)[C@@H](N)Cc4c[nH]cn4)ccc3C2c2ccc(NC(=O)[C@@H](N)Cc3cnc[nH]3)cc21 [ARK000017, (2S,2′S,2″S)—N,N′,N″-(9,10-dihydro-9,10-[1,2]benzenoanthracene-2,7,15-triyl)tris(2-amino-3-(1H-imidazol-4-yl)propanamide)hydrochloride]",60.6,−0.6 °C,–
O=C(O)CCC12C3=C(CCNC3)C(c3ccccc31)c1ccccc12 [ARK000019],60.0,−0.3 °C,–
CN(CCOCCN(C)C(=O)[C@@H]1C[C@H](N=[N+]=[N-])CN1C(=O)c1ccc(S(=O)(=O)F)cc1)C(=O)CCC12c3cc(NC(=O)CCCCCCCN)ccc3C(c3ccc(NC(=O)CCCCCCCN)cc31)c1ccc(NC(=O)CCCCCCCN)cc12 [ARK000030],64.8,+4.8 °C,–
"CN(CCOCCOCCNC(=O)CCC12c3cc(NC(=O)CCCCCCCN)ccc3C(c3ccc(NC(=O)CCCCCCCN)cc31)c1ccc(NC(=O)CCCCCCCN)cc12)C(=O)[C@@H]1C[C@H](N=[N+]=[N-])CN1C(=O)c1ccc(S(=O)(=O)F)cc1 [ARK000031, N,N′,N″-(9-(1-((2S,4S)-4-azido-1-(3-(4-(fluorosulfonyl)benzoyl)pyrrolidin-2-yl)-2,11-dimethyl-1,12-dioxo-5,8-dioxa-2,11-diazatetradecan-14-yl)-9,10-dihydro-9,10-[1,2]benzenoanthracene-2,7,15-triyl)tris(azanediyl))tris(8-aminooctanamide)]",84.1,+24.1 °C,+24.1 °C
CN(c1ccc(-c2ccc(-c3cn[nH]c3)cc2O)nn1)C1CC(C)(C)NC(C)(C)C1 [ARK000011],60.3,−1.4 °C,–

# Further lines, with some results ahead:
Melt. Temp. with cmpd [°C],Shift melt. Temp.,SMILES,Temp. Shift
60.2,+0.4 °C,CC(C)(C)OC(=O)NCCCC[C@H](NC(=O)OC(C)(C)C)C(=O)Nc1ccc2c(c1)C1(CCC(=O)NCCOCCOCCN)c3cc(NC(=O)[C@H](CCCCNC(=O)OC(C)(C)C)NC(=O)OC(C)(C)C)ccc3C2c2ccc(NC(=O)[C@H](CCCCNC(=O)OC(C)(C)C)NC(=O)OC(C)(C)C)cc21 [ARK000022],–
60.7,+0.6 °C,CC(C)(C)OC(=O)NCCCC[C@H](NC(=O)OC(C)(C)C)C(=O)Nc1ccc2c(c1)C1(CCC(=O)NCCOCCOCCN)c3cc(NC(=O)[C@@H](CCCCNC(=O)OC(C)(C)C)NC(=O)OC(C)(C)C)ccc3C2c2ccc(NC(=O)[C@@H](CCCCNC(=O)OC(C)(C)C)NC(=O)OC(C)(C)C)cc21 [ARK000023],–
60.8,+0.2 °C,"N[C@H](Cc1c[nH]cn1)C(=O)Nc1ccc2c(c1)C1c3cc(NC(=O)[C@H](N)Cc4c[nH]cn4)ccc3C2c2ccc(NC(=O)[C@H](N)Cc3cnc[nH]3)cc21 [ARK000018, (2R,2′R,2″R)—N,N′,N″-(9,10-dihydro-9,10-[1,2]benzenoanthracene-2,7,15-triyl)tris(2-amino-3-(1H-imidazol-4-yl)propanamide) hydrochloride]",–
61.4,−0.2 °C,CC1(C)CC(Oc2ccc(-c3ccc(-c4cn[nH]c4)cc3O)nn2)CC(C)(C)N1 [ARK000010],–
60.2,+0.3 °C,O=C(O)CCC12C3=C(CNCC3)C(c3ccccc31)c1ccccc12 [ARK000020],–
40.5,−19.0 °C,CCOC(=O)c1ccccc1NC(=O)N1CCCN(Cc2csc(C)n2)CC1 [ARK000021],–
62.9,+0.6 °C,C#CCCCC(=O)NC[C@H]1O[C@H](O[C@H]2[C@H](O)[C@@H](O[C@H]3O[C@H](CN=[N+]=[N-])[C@@H](O)[C@H](N)[C@H]3O)[C@H](N)C[C@@H]2N)[C@H](O)[C@@H](O)[C@@H]1O [ARK000009],–
